Series [1] can be described thus: Cleavage (in-vitro digestion) experiments in FaSSGF medium, which simulates the stomach. Format: in vitro ADME. The conditions noted are these: cleavage experiments in FaSSGF or FaSSIF medium; stepwise release, retardation effect. The source says: By means of cleavage experiments it is shown that carboxylic acid esters of 3-hydroxybutanoate produced according to the invention or mixtures thereof (cf. previously described experiments according to I., II. and III.), including reaction by-products such as dimers, etc., can be cleaved in the human gastrointestinal tract.
In each case, purified reaction products obtained by the inventive method are used as starting mixtures (i.e. tartaric acid ester of 3-hydroxybutanoate, lactic acid ester of 3-hydroxybutanoate, succinic acid ester of 3-hydroxybutanoate, citric acid ester of 3-hydroxybutanoate, maleic acid ester of 3-hydroxybutanoate, fumaric acid ester of 3-hydroxybutanoate, malic acid ester of 3-hydroxybutanoate and adipic acid ester of 3-hydroxybutanoate).
For the cleavage experiments under near-body conditions two media are investigated: • FaSSGF, which simulates the stomach • FaSSIF, which simulates the intestinal tract
Both media are from the company Biorelevant®, Ltd. in Great Britain. In addition, in some experiments porcine pancreas is added (Panzytrat® 40,000, Fa. Allergan).
Under FaSSIF conditions, a lower conversion using Panzytrat® takes place.
Accordingly, the cleavage experiments of dicarboxylic acid esters of 3-hydroxybutanoates also proceed in a cascade. Thus, a retardation effect is present overall.

The conditions of series [2]: even if several grams are taken; patients; cited from earlier work.

`CCOC(=O)CC(C)OC(=O)CC(O)(CC(=O)OC(C)CC(=O)OCC)C(=O)OC(C)CC(=O)OCC` (centres unmarked) [1,2,3-tris-(4-ethoxy-4-oxobutan-2yl)-2-hydroxypropane-1,2,3-tricarboxylate]: in series [1], the “course of the cleavage of 3-hydroxybutanoate” value is “proceeds in a cascade”.

On to `CC(O)CC(=O)O` (centres unmarked) [3-hydroxybutyric acid], for which the duration of ketosis entry in series [2] is recorded as “about three to four”.

(Values after US20230303478A1, “PROCESS FOR PREPARING CARBOXYLIC ACID ESTERS OF HYDROXYBUTANOATES” (IOI Oleo GmbH, priority 2020, published 2023).)
